From patent publication US9040557B2, “Composition containing cinchonine as an active ingredient for preventing and treating obesity, dyslipidemia, fatty liver, or insulin resistance syndrome” (YONSEI UNIVERSITY TECHNOLOGY HOLDINGS, INC., priority 2010, dated 2015)
Marks after values point to notes of the source that are not given here.

Legend:
[1] = test system: 3T3-L1 adipocyte precursor cells; experiment: Inhibition of adipocyte differentiation, Oil-red O staining; assay type: cell-based, mouse; conditions: 0.1, 1, 10, 50 and 100 μM, fourteen-day culture; for differentiation of 3T3-L1 adipocyte precursor cells: FIG. 1a; for content of intracellular fats stained with Oil-red O (O.D. at 600 nm): FIG. 1b
C57BL/6J mice [2] = experiment: Body and visceral fat-pad weights after 10 weeks of test diet; assay type: in vivo; conditions: 0.05% cinchonine in high-fat diet
Protocol: (§1) The obesity-inducing control diet used in the test was high-fat diet (HFD: 40% fat calorie, 17 g lard+3% corn oil/100 g diet). […] The normal diet (ND) was prepared according to the AIN-76 rodent diet composition (American Institute of Nutrition, Report of the American Institute of Nutrition ad hoc committee on standards for nutritional studies. J. Nutr., 107: 1340-1348, (1977)) (FIG. 1). (+)-Cinchonine was purchased from Sigma-Aldrich. 5-week-old male C57BL/6J mice (Orient, Korea) were accustomed to the laboratory environment for 1 week while feeding solid feed. Then, they were randomly divided into a high-fat diet group and a test group according to randomized block design and bred for a total of 10 weeks. The diet was given between 10 and 11 A.M. every day together with water. Food intake was measured every day and body weight was measured once a week. In order to avoid transient body weight increase after feed intake, body weight was measured 2 hr after removing the feed. […] Blood taken from the abdominal aorta was centrifuged at 1000×g for 15 minutes for the separation of plasma.

C57BL/6J mice [3] = experiment: Biochemical analysis of plasma after 10 weeks of test diet; assay type: in vivo
Protocol: as §1, with “plasma. […] Total cholesterol, triglyceride, free fatty acid and glucose levels in the plasma were measured twice for each using a commercially available kit (Bio Clinical System). The level of LDL+VLDL in plasma was calculated by subtracting HDL level from the total cholesterol level. The activities of ALT (alanine aminotransferase) and AST (aspartate aminotransferase) used as liver function indicator were measured using a commercially available kit (Bio Clinical System, Korea).” for “plasma.”

C57BL/6J mice [4] = experiment: Liver weight and lipid levels in liver tissue after 10 weeks of test diet; assay type: in vivo
Protocol: as §1, with “plasma. Lipids were extracted from the liver tissue according to Folch et al.'s method Folch J et al., J Biol Chem, 226: 497-509 (1957)). […] After adding 5 mL of chloroform:methanol solution (2:1, v/v) to the homogenate and mixing well, the mixture was centrifuged at 1000×g for 10 minutes. […] After adding 3 mL of chloroform:methanol:0.05% CaCl2 (3:48:47, v/v/v) solution to the remaining pellets and mixing well for 1 minute, followed by centrifugation at 1000×g for 10 minutes, the resulting pellets were completely dried with nitrogen gas. The dried lipids were dissolved in 1 mL of methanol and then analyzed. The commercially available kits (Bio Clinical System, Korea) were used to measure the levels of triglyceride, cholesterol and free fatty acids of the liver tissue.” for “plasma.”

PPARγ2 = experiment: RT-PCR of epididymal fat tissues: PPARγ2; assay type: in vivo, mice; conditions: CSID vs HFD, FIG. 4
Protocol: (§2) After adding 1 mL of Trizol agent (Invitrogen, USA) per 0.1 g of epididymal fat tissues, the mixture was homogenized and centrifuged at 12,000×g for 10 min at 4° C. The supernatant was transferred to a new tube and 200 μl of chloroform was added to the tube, followed by vortexing. The same procedure was repeated twice and then the supernatant was transferred to a new tube, followed by addition of isopropanol and the supernatant at 1:1 ratio. The mixture was vigorously shaken 10 times and then incubated for 10 min at room temperature, followed by centrifugation at 12,000×g for 10 min at 4° C. to remove the supernatant. After adding 1 mL of 70% ethanol to the remaining pellet, it was centrifuged at 7,500×g for 5 min at 4° C. After removing the ethanol, the RNA pellet contained in the tube was dried for 5 min at 4° C. and dissolved in nuclease-free water. The RNA concentration of sample was measured at a wavelength of 260 nm and 280 nm using a UV/VIS spectrophotometer (Beckman coulter, DU730) and the integrity of RNA sample was verified by agarose gel electrophoresis. The RNA sample obtained from the epididymal fat tissues was transcribed using oligo dT primer and SuperScript reverse transcriptase (GIBCO BRL, Gaithersburg, Md., USA) to synthesize cDNA. The PCR amplification was performed using the cDNA as templates and primers complementary to cDNA [NT] flanking sequence. […]

C/EBPα = experiment: RT-PCR of epididymal fat tissues: C/EBPα; assay type: in vivo, mice; conditions: CSID vs HFD, FIG. 4
aP2 = experiment: RT-PCR of epididymal fat tissues: aP2; assay type: in vivo, mice; conditions: CSID vs HFD, FIG. 4
Protocol: as §2

TNF-α = experiment: RT-PCR of visceral fat tissues: TNF-α; assay type: in vivo, mice; conditions: FIG. 5
Protocol: as §2

IL-6 = experiment: RT-PCR of visceral fat tissues: IL-6; assay type: in vivo, mice; conditions: FIG. 5
Protocol: as §2

UCP1 = experiment: RT-PCR of visceral fat tissues: UCP1; assay type: in vivo, mice; conditions: FIG. 6
Protocol: as §2

UCP3 = experiment: RT-PCR of visceral fat tissues: UCP3; assay type: in vivo, mice; conditions: FIG. 6
Protocol: as §2

[5] = test system: P388 multidrug-resistant cells; conditions: cited from earlier work
Plasmodium falciparum = conditions: cited from earlier work
human platelets = conditions: cited from earlier work
[6] = test system: adrenorceptor and Ca^2+ channels; conditions: cited from earlier work
P-glycoprotein = P-glycoprotein (Homo sapiens, UniProt P08183); conditions: cited from earlier work
[7] = 0.05% cinchonine in high-fat diet, 10 weeks
[8] = 0.05% cinchonine in high-fat diet

P-glycoprotein, sequence (P08183 whole entry): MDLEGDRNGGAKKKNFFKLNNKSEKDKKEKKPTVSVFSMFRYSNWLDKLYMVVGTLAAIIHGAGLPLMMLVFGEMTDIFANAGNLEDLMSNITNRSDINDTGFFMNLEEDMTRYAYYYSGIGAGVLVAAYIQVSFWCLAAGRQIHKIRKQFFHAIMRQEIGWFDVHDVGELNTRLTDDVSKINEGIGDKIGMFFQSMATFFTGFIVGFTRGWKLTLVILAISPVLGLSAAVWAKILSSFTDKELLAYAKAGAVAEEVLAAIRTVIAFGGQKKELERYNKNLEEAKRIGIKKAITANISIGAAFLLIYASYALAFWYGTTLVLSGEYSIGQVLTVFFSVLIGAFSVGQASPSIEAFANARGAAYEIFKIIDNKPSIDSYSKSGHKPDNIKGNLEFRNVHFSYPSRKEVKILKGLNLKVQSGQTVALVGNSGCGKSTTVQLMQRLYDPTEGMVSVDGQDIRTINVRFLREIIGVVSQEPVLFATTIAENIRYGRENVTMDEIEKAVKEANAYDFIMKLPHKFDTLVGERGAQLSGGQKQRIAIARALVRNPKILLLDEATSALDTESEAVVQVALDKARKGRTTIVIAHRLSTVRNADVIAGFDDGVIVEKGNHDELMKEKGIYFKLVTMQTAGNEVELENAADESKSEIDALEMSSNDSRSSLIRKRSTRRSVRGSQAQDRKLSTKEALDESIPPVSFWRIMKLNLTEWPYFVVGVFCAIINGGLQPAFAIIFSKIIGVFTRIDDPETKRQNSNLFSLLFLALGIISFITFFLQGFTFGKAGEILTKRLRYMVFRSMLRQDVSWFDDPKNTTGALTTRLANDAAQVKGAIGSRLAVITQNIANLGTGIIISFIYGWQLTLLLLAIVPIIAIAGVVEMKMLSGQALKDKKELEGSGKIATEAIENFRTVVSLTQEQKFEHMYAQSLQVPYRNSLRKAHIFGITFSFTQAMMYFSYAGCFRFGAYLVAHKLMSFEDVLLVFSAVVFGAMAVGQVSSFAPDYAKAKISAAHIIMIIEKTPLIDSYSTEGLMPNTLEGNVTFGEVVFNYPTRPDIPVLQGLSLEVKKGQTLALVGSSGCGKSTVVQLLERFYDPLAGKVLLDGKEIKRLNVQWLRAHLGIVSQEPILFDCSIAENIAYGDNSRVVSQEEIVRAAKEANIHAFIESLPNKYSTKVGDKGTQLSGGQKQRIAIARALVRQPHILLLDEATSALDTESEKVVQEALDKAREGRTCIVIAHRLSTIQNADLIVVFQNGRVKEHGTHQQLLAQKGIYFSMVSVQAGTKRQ

C=C[C@H]1C[N@@]2CC[C@H]1C[C@@H]2[C@@H](O)c1ccnc2ccccc12 [cinchonine, Cinchonine]
differentiation of 3T3-L1 adipocyte precursor cells [1]: significantly decreases differentiation
differentiation of 3T3-L1 adipocyte precursor cells ([1]; listed as (+)-cinchonine): decreased differentiation
content of intracellular fats stained with Oil-red O (O.D. at 600 nm) [1]: decreased in a dose-dependent manner
content of intracellular fats stained with Oil-red O (O.D. at 600 nm) ([1]; listed as (+)-cinchonine): decreased
decrease in cumulative body weight gain as compared to HFD (C57BL/6J mice [2]): 39%
decrease in final body weight as compared to HFD (C57BL/6J mice [2]): 20%
reduction of epididymal fat-pad weight as compared to HFD (C57BL/6J mice [2]): 19%
reduction of mesenteric fat-pad weight as compared to HFD (C57BL/6J mice [2]): 43%
reduction of perirenal fat-pad weight as compared to HFD (C57BL/6J mice [2]): 45%
reduction of retroperitoneal fat-pad weight as compared to HFD (C57BL/6J mice [2]): 15%
reduction of total visceral fat weight as compared to HFD (C57BL/6J mice [2]; p<0.001): 26%
decrease of plasma ALT activity as compared to HFD (C57BL/6J mice [3]; [7]): 58%
decrease of plasma AST activity as compared to HFD (C57BL/6J mice [3]; [7]): 46%
lower plasma LDL+VLDL level as compared to HFD (C57BL/6J mice [3]; [7]): 33%
lower plasma free fatty acid level as compared to HFD (C57BL/6J mice [3]; [7]): 21%
lower plasma total cholesterol level as compared to HFD (C57BL/6J mice [3]; [7]): 30%
lower plasma triglyceride level as compared to HFD (C57BL/6J mice [3]; [7]): 24%
reduction of fasting blood sugar level as compared to HFD (C57BL/6J mice [3]; [7]): 27%
lower plasma HDL cholesterol level as compared to HFD (C57BL/6J mice [3]; group fed with the present composition vs high fat diet group): 25%
ALT (C57BL/6J mice [3]; plasma, CSID group, 10 weeks): 5.94 ± 0.78^c IU/L
AST (C57BL/6J mice [3]; plasma, CSID group, 10 weeks): 6.03 ± 0.28^b IU/L
Free fatty acid (C57BL/6J mice [3]; plasma, CSID group, 10 weeks): 685 ± 65.6^b uEq/L
HDL cholesterol (C57BL/6J mice [3]; plasma, CSID group, 10 weeks): 0.89 ± 0.04^b mmol/L
Total cholesterol (C57BL/6J mice [3]; plasma, CSID group, 10 weeks): 4.57 ± 0.26^b mmol/L
Triglyceride (C57BL/6J mice [3]; plasma, CSID group, 10 weeks): 0.68 ± 0.05^b mmol/L
LDL + VLDL cholesterol (C57BL/6J mice [3]; plasma, CSID group, 10 weeks, total cholesterol minus HDL): 3.68 ± 0.27^b mmol/L
Glucose (C57BL/6J mice [3]; plasma, fasting, CSID group, 10 weeks): 6.51 ± 0.62^b mmol/L
decrease of cholesterol level in liver tissue as compared to HFD (C57BL/6J mice [4]; [8]): 16%
decrease of free fatty acid level in liver tissue as compared to HFD (C57BL/6J mice [4]; [8]): 23%
decrease of triglyceride level in liver tissue as compared to HFD (C57BL/6J mice [4]; [8]): 16%
reduction of absolute weight of liver as compared to HFD (C57BL/6J mice [4]; [8]): 36%
reduction of ratio of liver weight to body weight as compared to HFD (C57BL/6J mice [4]; [8]): 25%
Liver weight (C57BL/6J mice [4]; CSID group): 1.4 ± 0.14^b g
Liver weight (g/100 g body wt) (C57BL/6J mice [4]; CSID group): 4.0 ± 0.12^b g/100 g body wt
Cholesterol (C57BL/6J mice [4]; liver tissue, CSID group): 109.9 ± 2.37^b μmol/g
Free fatty acid (C57BL/6J mice [4]; liver tissue, CSID group): 38.6 ± 3.52^b μEq/g
Triglyceride (C57BL/6J mice [4]; liver tissue, CSID group): 59.7 ± 2.26^b μmol/g
PPARγ2 gene expression (mRNA) (PPARγ2): significantly reduced expressions
C/EBPα gene expression (mRNA) (C/EBPα): significantly reduced expressions
aP2 gene expression (mRNA) (aP2): significantly reduced expressions
HFD-induced elevation in expression of TNF-α (TNF-α): significantly reversed
HFD-induced elevation in expression of IL-6 (IL-6): significantly reversed
HFD-induced decrease in expression of UCP1 (UCP1): significantly reversed
HFD-induced decrease in expression of UCP3 (UCP3): significantly reversed
apoptosis by suppressing transportation of drugs from P388 multidrug-resistant cells [5]: induce apoptosis
in vitro anti-malaria effects (Plasmodium falciparum): in vitro anti-malaria effects
platelet aggregation, blocking Ca^2+ influx into human platelets (human platelets): inhibits platelet aggregation
antihypertensive effects by blocking adrenorceptor and Ca^2+ channels [6]: antihypertensive effects
multi-drug resistance of cancer cells through P-glycoprotein binding (P-glycoprotein): improve multi-drug resistance
